Experimental findings from patent US9700565B2, “Method of treating mixed lineage leukemia gene-rearranged acute lymphoblastic leukemias” (Dana-Farber Cancer Institute, Inc., priority 2003, dated 2017) are described below.

One assay deals with SEMK2-M1. Briefly: In vivo xenograft model of MLL rearranged ALL with bioluminescent imaging, SEMK2-M1 cells. The arrangement: species or system SCID-beige mice. The settings on record: 150 mg/kg once daily via gavage, 5 days per week. The method, then:
(§1) To determine if PKC412 is effective against an in vivo model of MLL rearranged ALL, a xenograft model system in which leukemia burden can be quantitated with in vivo bioluminescent imaging is established. SEMK2-M1 and RS4; 11 (ATCC Number: CRL-1873) cell lines are engineered to express firefly luciferase fused to neomycin phosphotransferase by retroviral transduction. One million leukemia cells are then injected into the tail vein of SCID-beige mice. Within 1 week, the bioluminescent signal is detectable in a location consistent with the femur. Pathologic analysis of similarly xenografted mice confirm that the leukemia cells are initially found in the mouse bone marrow present in the femoral head. The leukemia subsequently progresses to replace the normal bone marrow and involve other organs, thus mimicking the progression of human leukemia. Once the leukemia had engrafted, as can be determined by the presence of a bioluminescent signal, a cohort of mice is treated with either 150 mg/kg PKC412 or vehicle once daily via gavage for 5 days per week. Serial imaging of the two cohorts is then performed to quantitate disease burden. […] Thus, oral administration of PKC412 is effective in vivo against human lymphoblastic leukemia with an MLL rearranged ALL arrangement and activated FLT3.

The test system of another assay is RS4; 11. Briefly: In vivo xenograft model of MLL rearranged ALL with bioluminescent imaging, RS4; 11 cells. As to conditions: SCID-beige mice injected with RS4; 11 cells (does not over-express FLT3); 150 mg/kg once daily via gavage, 5 days per week. The method, then:
as §1

SMILES strings stand for the structures.

Take `CO[C@@H]1[C@H](N(C)C(=O)c2ccccc2)C[C@H]2O[C@]1(C)n1c3ccccc3c3c4c(c5c6ccccc6n2c5c31)C(=O)NC4` [PKC412, N-benzoyl-staurosporine]: in the assay with SEMK2-M1 (SCID-beige mice engrafted with SEMK2-M1 cells (over-expresses FLT3), after 2 weeks of therapy), the “quantification of total leukemic burden (bioluminescent imaging)” value is “anti-tumor efficacy”. Further, the “tumor burden by pathological analysis at completion of the study” value in the assay with SEMK2-M1 (SEMK2-M1 injected mice, compared to control mice) was “vast differences in tumor burden”. Moreover, in the assay on RS4; 11, the “anti-tumor effect on leukemia (bioluminescent imaging)” value is listed as “no effect”.
